This series has as its system rodent carcinogenicity bioassays, tumor incidence. As to the kind of experiment: CCRIS carcinogenicity studies. The essentials:
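NCI-built, expert-reviewed records of carcinogenicity and related test outcomes (mutagenicity, tumor promotion/inhibition) compiled from published and report sources, historical span 1985-2011, not updated.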

Activity calls are given as the source filed them. The rule behind the calls is not given here.

The source of these data is PubChem BioAssay AID1259411 (Chemical Carcinogenesis Research Information System (CCRIS), 2018).

`O=C(Cn1ccnc1[N+](=O)[O-])NCc1ccccc1`: the carcinogen call is “active; positive” (Species: MOUSE, Strain/Sex: SWISS/FEMALE, Route: INTRAPERITONEAL, Dose: 0, 8 UG/G BW 1/D FOR 30 DAYS (STUDY DURATION: LIFETIME), Tumor Site: Type of Lesion: LYMPHATIC SYSTEM: LYMPHOMA) and “active; positive” (Species: MOUSE, Strain/Sex: SWISS/FEMALE, Route: INTRAPERITONEAL, Dose: 0, 8 UG/G BW 1/D FOR 60 DAYS (STUDY DURATION: LIFETIME), Tumor Site: Type of Lesion: LYMPHATIC SYSTEM: LYMPHOMA).
Turning to `CCOC(=O)Nc1cccc(OC(=O)Nc2ccccc2)c1`, the carcinogen call by setting is: (Species: Mouse, Strain/Sex: NMRI/Female (50/Group), Route: Oral, Dose: 0, 30, 150, 750 ppm in diet for 104 wk, Dose: 0, 30, 150, 750 ppm in diet for 104 wk) “inactive; negative”; (Species: Mouse, Strain/Sex: NMRI/Male (50/Group), Route: Oral, Dose: 0, 30, 150, 750 ppm in diet for 104 wk, Dose: 0, 30, 150, 750 ppm in diet for 104 wk) “inactive; negative”; (Species: Rat, Strain/Sex: Wistar KFM-Han/Female (50/Group), Route: Oral, Dose: 0, 60, 300, 1500 ppm in diet for 2 yr, Dose: 0, 60, 300, 1500 ppm in diet for 2 yr) “inactive; negative”; (Species: Rat, Strain/Sex: Wistar KFM-Han/Male (50/Group), Route: Oral, Dose: 0, 60, 300, 1500 ppm in diet for 2 yr, Dose: 0, 60, 300, 1500 ppm in diet for 2 yr) “inactive; negative”.
As to `COc1cc2c(c3oc(=O)c4c(c13)CCC4=O)[C@]1(O)C=CO[C@@H]1O2`, the carcinogen call was “active; positive” (Species: FISH, Strain/Sex: RAINBOW TROUT, Route: ORAL, Dose: 0, 1.5, 7.5, UG/KG DIET FOR 5.5 MO (STUDY DURATION: 5.5 MO), Dose: 0, 1.5, 7.5, UG/KG DIET FOR 5.5 MO (STUDY DURATION: 5.5 MO), Tumor Site: Type of Lesion: LIVER: HEPATOMA); “active; positive” (Species: RAT, Strain/Sex: F344/MALE, Route: ORAL, Dose: 0, 0.5, 5, 50 PPB IN AGAR BASED SEMISYNTHETIC DIET FOR STUDY DURATION (STUDY DURATION: 21 MO), Dose: 0, 0.5, 5, 50 PPB IN AGAR BASED SEMISYNTHETIC DIET FOR STUDY DURATION (STUDY DURATION: 21 MO), Tumor Site: Type of Lesion: LIVER: NEOPLASTIC NODULE, HEPATOCELLULAR CARCINOMA); “active; positive” (Species: TROUT, Strain/Sex: MT. SHASTA RAINBOW, Route: ORAL, Dose: 4, 16, 32, 64 PPB IN DIET FOR 12 MO, Dose: 4, 16, 32, 64 PPB IN DIET FOR 12 MO, Tumor Site: Type of Lesion: LIVER: HEPATOMA).
In the case of `NC(=O)N(CCO)N=O`, the carcinogen call (Species: HAMSTER, Strain/Sex: SYRIAN/FEMALE, Route: GAVAGE, Dose: 0, 14 MG/ML ((0.2 ML OF A SOLUTION IN ETHYL ACETATE/CORN OIL (1:2)) 1/WK FOR 22 WK (STUDY DURATION: LIFE SPAN), Tumor Site: Type of Lesion: LIVER: HEMANGIOSARCOMA, SPLEEN: HEMANGIOSARCOMA) was “active; positive”; the carcinogen call (Species: HAMSTER, Strain/Sex: SYRIAN/MALE, Route: GAVAGE, Dose: 0, 14 MG/ML ((0.2 ML OF A SOLUTION IN ETHYL ACETATE/CORN OIL (1:2)) 1/WK FOR 22 WK (STUDY DURATION: 20 WK), Tumor Site: Type of Lesion: LIVER: HEMANGIOSARCOMA, PANCREAS: CARCINOMA OR ADENOMA, SPLEEN: HEMANGIOSARCOMA, FORESTOMACH: SQUAMOUS CELL CARCINOMA OR, Tumor Site: Type of Lesion: LIVER: HEMANGIOSARCOMA, PANCREAS: CARCINOMA OR ADENOMA, SPLEEN: HEMANGIOSARCOMA, FORESTOMACH: SQUAMOUS CELL CARCINOMA OR) was “active; positive”; the carcinogen call (Species: RAT, Strain/Sex: F344/MALE, Route: GAVAGE, Dose: 0, 2.4 MG IN 0.2 ML ETHYL ACETATE/CORN OIL (1:1) 2/WK FOR 30 WK (TOTAL DOSE: 168 MG) (STUDY DURATION: 80 WK), Tumor Site: Type of Lesion: LUNG: CARCINOMA OR ADENOMA, THYROID: CARCINOMA OR ADENOMA) is “active; positive”.
In the case of `C=C(C)C(=O)OC`, the carcinogen call runs as follows: (Species: HAMSTER, Strain/Sex: GOLDEN/FEMALE, Route: INHALATION, Dose: 0, 25, 100, 400 PPM IN AIR 6 HR/D 5 D/WK FOR 18 MO (STUDY DURATION: 78 WK), Dose: 0, 25, 100, 400 PPM IN AIR 6 HR/D 5 D/WK FOR 18 MO (STUDY DURATION: 78 WK)) “inactive; negative”; (Species: HAMSTER, Strain/Sex: GOLDEN/MALE, Route: INHALATION, Dose: 0, 25, 100, 400 PPM IN AIR 6 HR/D 5 D/WK FOR 18 MO (STUDY DURATION: 78 WK), Dose: 0, 25, 100, 400 PPM IN AIR 6 HR/D 5 D/WK FOR 18 MO (STUDY DURATION: 78 WK)) “inactive; negative”; (Species: MOUSE, Strain/Sex: B6C3F1/FEMALE, Route: INHALATION, Dose: 0, 500, 1000 PPM 6 HR/D, 5 D/WK FOR 102 WK, Dose: 0, 500, 1000 PPM 6 HR/D, 5 D/WK FOR 102 WK) “inactive; negative”; (Species: MOUSE, Strain/Sex: B6C3F1/MALE, Route: INHALATION, Dose: 0, 500, 1000 PPM 6 HR/D, 5 D/WK FOR 102 WK, Dose: 0, 500, 1000 PPM 6 HR/D, 5 D/WK FOR 102 WK) “inactive; negative”; (Species: RAT, Strain/Sex: F344/FEMALE, Route: INHALATION, Dose: 0, 25, 100, 400 PPM IN AIR 6 HR/D 5 D/WK FOR 24 MO (STUDY DURATION: 104-106 WK), Dose: 0, 25, 100, 400 PPM IN AIR 6 HR/D 5 D/WK FOR 24 MO (STUDY DURATION: 104-106 WK)) “inactive; negative”; (Species: RAT, Strain/Sex: F344/FEMALE, Route: INHALATION, Dose: 0, 250, 500 PPM 6 HR/D, 5 D/WK FOR 102 WK, Dose: 0, 250, 500 PPM 6 HR/D, 5 D/WK FOR 102 WK) “inactive; negative”. Further, the carcinogen call (Species: RAT, Strain/Sex: F344/MALE, Route: INHALATION, Dose: 0, 25, 100, 400 PPM IN AIR 6 HR/D 5 D/WK FOR 24 MO (STUDY DURATION: 104-106 WK), Dose: 0, 25, 100, 400 PPM IN AIR 6 HR/D 5 D/WK FOR 24 MO (STUDY DURATION: 104-106 WK)) was “inactive; negative” and the carcinogen call (Species: RAT, Strain/Sex: F344/MALE, Route: INHALATION, Dose: 0, 500, 1,000 PPM 6 HR/D, 5 D/WK FOR 102 WK, Dose: 0, 500, 1,000 PPM 6 HR/D, 5 D/WK FOR 102 WK) is “inactive; negative”.
For `N#CN=C(N)N`, the carcinogen call runs as follows: (Species: RAT, Strain/Sex: F344/FEMALE, Route: ORAL, Dose: 0, 2.5, 5% IN DIET FOR 104 WK (STUDY DURATION: 113 WK), Dose: 0, 2.5, 5% IN DIET FOR 104 WK (STUDY DURATION: 113 WK)) “inactive; negative”; (Species: RAT, Strain/Sex: F344/MALE, Route: ORAL, Dose: 0, 2.5, 5% IN DIET FOR 104 WK (STUDY DURATION: 113 WK), Dose: 0, 2.5, 5% IN DIET FOR 104 WK (STUDY DURATION: 113 WK)) “inactive; negative”.
Consider `CCC[CH2][Sn]([CH2]CCC)([CH2]CCC)[O][Sn]([CH2]CCC)([CH2]CCC)[CH2]CCC`, for which the carcinogen call (Species: RAT, Strain/Sex: WISTAR/FEMALE, Route: ORAL, Dose: 0, 0.5, 5, 50 MG/KG DIET FOR 30 MO (STUDY DURATION: 30 MO), Dose: 0, 0.5, 5, 50 MG/KG DIET FOR 30 MO (STUDY DURATION: 30 MO), Tumor Site: Type of Lesion: ADRENAL GLAND: PHEOCHROMOCYTOMA, PITUITARY: TUMOR) was “active; positive” and the carcinogen call (Species: RAT, Strain/Sex: WISTAR/MALE, Route: ORAL, Dose: 0, 0.5, 5, 50 MG/KG DIET FOR 30 MO (STUDY DURATION: 30 MO), Dose: 0, 0.5, 5, 50 MG/KG DIET FOR 30 MO (STUDY DURATION: 30 MO), Tumor Site: Type of Lesion: ADRENAL GLAND: PHEOCHROMOCYTOMA, PITUITARY: TUMOR, PARATHYROID: ADENOMA, Tumor Site: Type of Lesion: ADRENAL GLAND: PHEOCHROMOCYTOMA, PITUITARY: TUMOR, PARATHYROID: ADENOMA) was “active; positive”.
`CN(N)C=O`: the carcinogen call was “active; positive” (Species: MOUSE, Strain/Sex: SWISS/FEMALE, Route: ORAL, Dose: 0, 0.0078% SOLUTION IN DRINKING WATER STARTING AT 6 WK OF AGE FOR LIFE FOR AVERAGE DAILY INTAKE OF 0 OR 0.80 MG (STUDY D, Tumor Site: Type of Lesion: LIVER: HEPATOMA OR CARCINOMA, LUNG: ADENOMA OR ADENOCARCINOMA) and “active; positive” (Species: MOUSE, Strain/Sex: SWISS/MALE, Route: ORAL, Dose: 0, 0.0078% SOLUTION IN DRINKING WATER STARTING AT 6 WK OF AGE FOR LIFE FOR AVERAGE DAILY INTAKE OF 0 OR 0.99 MG (STUDY D, Tumor Site: Type of Lesion: LIVER: HEPATOMA OR CARCINOMA, LUNG: ADENOMA OR ADENOCARCINOMA, GALLBLADDER: ADENOMA, BILE DUCT: CHOLANGIOMA OR CHOLANGIO, Tumor Site: Type of Lesion: LIVER: HEPATOMA OR CARCINOMA, LUNG: ADENOMA OR ADENOCARCINOMA, GALLBLADDER: ADENOMA, BILE DUCT: CHOLANGIOMA OR CHOLANGIO).
